# Assay results as given in patent US12503452B2 (Curza Global, LLC, priority 2019, dated 2025).
# Like-named read-outs stand apart in the source and are kept apart here.
# Assays:
# [1] = system: E. coli S30 extract (bacterial protein synthesis); test: E. coli S30 extract coupled transcription-translation luciferase assay (inhibition of bacterial protein synthesis); assay type: biochemical; conditions: read-out: S30 IC50 (μM/% inhib.)
# In short: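 Cell-free coupled transcription-translation in E. coli S30 circular-DNA extract, with pBESTluc plasmid as template and complete amino acid mix. Eight 2-fold compound dilutions were incubated with the extract 1 h at 37 °C, chilled, then luciferase luminescence was read. % inhibition was taken relative to no-inhibitor wells; no-DNA wells gave background.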
# [2] = molecular target: Rabbit Reticulocyte Lysate (eukaryotic protein synthesis); test: Rabbit reticulocyte lysate luciferase assay (inhibition of eukaryotic protein synthesis); assay type: biochemical; conditions: read-out: Rabbit reticulocyte IC50 (μM/% inhib.)
# In short: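 Nuclease-treated rabbit reticulocyte lysate translating luciferase control RNA, with complete amino acids, was incubated at 30° C. for 90 minutes with 2-fold serial compound dilutions. Luminescence was measured after adding luciferase reagent. % inhibition was relative to water controls, with no-RNA wells as background.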
# A. baumannii (Ab) = test: Broth microdilution minimum inhibitory concentration (MIC); assay type: cell-based; conditions: Acinetobacter baumannii, A. baumannii, read-out: Ab + bicarb MIC
# In short: (§1)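 CLSI broth microdilution (M07-A9, slightly modified) in CAMHB, optionally with 6.25 or 25 mM sodium bicarbonate or 0–50% heat-inactivated human serum. Two-fold serial dilutions (8 concentrations, triplicate) were inoculated at 5×10^4 CFU/well from 0.5 McFarland cultures grown at 35±2 °C.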
# E. coli (Ec) = test: as above; assay type: cell-based; conditions: Escherichia coli, E. coli, read-out: E. coli + bicarb MIC
# In short: as §1
# E. faecalis (Ef) = test: as above; assay type: cell-based; conditions: E. faecalis; for MIC: Enterococcus faecalis, read-out: Ef + bicarb MIC
# In short: as §1
# P. aeruginosa (Pa) = test: as above; assay type: cell-based; conditions: P. aeruginosa; for MIC: Pseudomonas aeruginosa, read-out: Pa MIC + bicarb
# In short: as §1
# S. aureus (Sa) = test: as above; assay type: cell-based; conditions: Staphylococcus aureus, S. aureus, read-out: Sa + bicarb MIC
# In short: as §1
# [3] = class by IC50 or % inhibition @ 1 μM
# [4] = growth medium with sodium bicarbonate
# [5] = growth medium supplemented with sodium bicarbonate
Structure (SMILES),"IC50 [1, 3] [µM]","IC50 [2, 3] [µM]",MIC (A. baumannii (Ab); [4]) [µg/mL],MIC (E. coli (Ec); [4]) [µg/mL],MIC (E. faecalis (Ef); [4]) [µg/mL],MIC (P. aeruginosa (Pa); [4]) [µg/mL],MIC (S. aureus (Sa); [4]) [µg/mL],MIC (A. baumannii (Ab); [5]) [µg/mL],MIC (E. coli (Ec); [5]) [µg/mL],MIC (E. faecalis (Ef); [5]) [µg/mL],MIC (P. aeruginosa (Pa); [5]) [µg/mL],MIC (S. aureus (Sa); [5]) [µg/mL],IC50 ([1]; % inhibition @ 1 μM) [µM],IC50 ([2]; % inhibition @ 1 μM) [µM],Ef + bicarb MIC (E. faecalis (Ef); [4]),Pa MIC + bicarb (P. aeruginosa (Pa); [4])
CN(CCc1ccc(-n2ccc(NC(=O)N3CCN(C(=O)C(C)(C)N)CC3)nc2=O)cc1)[C@H]1CC[C@@H](CN)C1 (stereo in doubt) [Compound 178],> 1,> 1,> 32,< 8,> 32,> 32,8 to 32,–,–,–,–,–,–,–,–,–
CCN(Cc1ccc(-n2ccc(NC(=O)N3CCN(C(=O)C(C)(C)N)CC3)nc2=O)cc1C(F)(F)F)C1CCC(N)CC1 (stereo not shown) [Compound 276],0.5 to 1,> 1,> 32,< 8,< 8,> 32,< 8,–,–,–,–,–,–,–,–,–
CN(Cc1ccc(-n2ccc(NC(=O)N3CCN(C(=O)C(C)(C)N)CC3)nc2=O)cc1)[C@H]1CC[C@H](N)C1 [Compound 124],< 0.5,> 1,–,–,–,–,–,> 32,< 8,< 8,> 32,< 8,–,–,–,–
CCN(CC1CNC1)C(C)Cc1ccc(-n2ccc(NC(=O)N3CCN(C(=O)C(C)(C)N)CC3)nc2=O)cc1 (stereo not shown) [Compound 167],> 1,> 1,> 32,< 8,8 to 32,> 32,8 to 32,–,–,–,–,–,–,–,–,–
CCN(Cc1ccc(-n2ccc(NC(=O)N3CCN(C(=O)[C@@H](C)NC(=O)[C@@H](C)N)CC3)nc2=O)cc1)C1CCC(N)CC1 (stereo partly shown) [Compound 359],–,–,> 32,> 32,> 32,> 32,8 to 32,–,–,–,–,–,> 1,> 1,–,–
CC(C)(N)C(=O)N1CCN(C(=O)Nc2ccn(-c3ccc(CN4CC[C@@H](N)[C@H](CO)C4)cc3)c(=O)n2)CC1 [Compound 227],> 1,> 1,> 32,8 to 32,> 32,> 32,> 32,–,–,–,–,–,–,–,–,–
CCN(C(C)Cc1ccc(-n2ccc(NC(=O)N3CCN(C(=O)C(C)(C)N)CC3)nc2=O)cc1)C1CCC(N)CC1 (stereo not shown) [Compound 281],< 0.5,> 1,> 32,< 8,–,–,< 8,–,–,–,–,–,–,–,+++ (An MIC value (μg/mL) that is less than 8 μg/mL),++ (An MIC value (μg/mL) that is 8 μg/mL or greater and less than 32 μg/mL)
Cc1cc(-n2ccc(NC(=O)N3CCN(C(=O)C(C)(C)N)CC3)nc2=O)ccc1CCN1CCCC(N)CC1 (stereo not shown) [Compound 140],< 0.5,> 1,–,–,–,–,–,8 to 32,< 8,< 8,8 to 32,< 8,–,–,–,–
CCCN(Cc1ccc(-n2ccc(NC(=O)N3CCN(C(=O)C(C)(C)N)CC3)nc2=O)cc1)[C@H]1CC[C@H](N)CC1 [Compound 131],< 0.5,> 1,–,–,–,–,–,< 8,< 8,< 8,8 to 32,< 8,–,–,–,–
CC[C@H]1CN(Cc2ccc(-n3ccc(NC(=O)N4CCN(C(=O)C(C)(C)N)CC4)nc3=O)cc2)CC[C@H]1N [Compound 212],0.5 to 1,> 1,> 32,< 8,< 8,> 32,< 8,–,–,–,–,–,–,–,–,–
